The results in this text go back to ChEMBL document CHEMBL3868586, “Mansoins C-F, Oligomeric Flavonoid Glucosides Isolated from Mansoa hirsuta Fruits with Potential Anti-inflammatory Activity” (J Nat Prod, 2016).

Calls of active or inactive are those of the source. No cut-off for these calls is given here.

The target in assay [1] is T1, Transcription factor p65 (Homo sapiens, UniProt Q04206). Description: Inhibition of LPS-induced NF-kappa-B p65 phosphorylation in human THP1 cells at 50 uM preincubated for 3 hrs followed by LPS stimulation for 18 hrs. Particulars: THP-1.
Assay [2] has as its target T1, Transcription factor p65. As to the kind of experiment: Inhibition of NF-kappa-B p65 in human THP1 cells assessed reduction in phosphorylated p65 levels at 50 uM preincubated for 3 hrs followed by LPS stimulation after 18 hrs by Western blot analysis. It is filed as cell-based. Particulars: THP-1. Background: A western blot detects proteins with antibodies after separation by electrophoresis.

Assay [3] concerns the target T1, Transcription factor p65. As to the kind of experiment: Inhibition of NF-kappa-B p65 in human THP1 cells assessed as suppression of LPS-induced TNFalpha release preincubated for 3 hrs followed by LPS stimulation by ELISA. The format is cell-based, THP-1. In general terms: An ELISA detects its analyte on a solid surface through an enzyme-linked reagent.

T1 sequence (Q04206 whole entry): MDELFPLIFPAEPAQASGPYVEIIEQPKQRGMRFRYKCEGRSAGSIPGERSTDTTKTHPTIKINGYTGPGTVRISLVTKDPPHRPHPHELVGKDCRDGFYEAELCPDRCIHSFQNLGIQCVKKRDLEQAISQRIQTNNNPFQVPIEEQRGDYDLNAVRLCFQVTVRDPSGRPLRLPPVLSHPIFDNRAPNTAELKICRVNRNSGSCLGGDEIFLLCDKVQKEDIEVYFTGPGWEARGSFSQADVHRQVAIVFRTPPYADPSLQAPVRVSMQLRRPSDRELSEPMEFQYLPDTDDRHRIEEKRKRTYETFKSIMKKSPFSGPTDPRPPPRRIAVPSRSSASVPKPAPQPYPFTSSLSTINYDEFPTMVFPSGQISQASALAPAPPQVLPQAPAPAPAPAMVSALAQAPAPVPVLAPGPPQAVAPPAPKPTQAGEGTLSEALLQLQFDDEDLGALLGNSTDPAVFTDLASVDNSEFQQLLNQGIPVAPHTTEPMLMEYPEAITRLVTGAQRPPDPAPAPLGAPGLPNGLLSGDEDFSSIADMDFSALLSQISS

For the compound `O=C1C[C@@H](c2ccc(O)c(O[C@@H]3O[C@H](CO)[C@@H](O)[C@H](O)[C@H]3O)c2)Oc2c1c(O)c([C@H](CCc1ccc(O)cc1)c1ccc(O)cc1O[C@@H]1O[C@H](CO)[C@@H](O)[C@H](O)[C@H]1O)c(O)c2[C@@H](CCc1ccc(O)cc1)c1ccc(O)cc1O[C@@H]1O[C@H](CO)[C@@H](O)[C@H](O)[C@H]1O`, the inhibition entry on Transcription factor p65 [1] and on Transcription factor p65 [2] was “Active” throughout.

For the compound `O=C1C[C@@H](c2ccc(O)c(O[C@@H]3O[C@H](CO)[C@@H](O)[C@H](O)[C@H]3O)c2)Oc2c1c(O)c([C@H](CCc1ccc(O[C@@H]3O[C@H](CO)[C@@H](O)[C@H](O)[C@H]3O)cc1)c1ccc(O[C@@H]3O[C@H](CO)[C@@H](O)[C@H](O)[C@H]3O)cc1O[C@@H]1O[C@H](CO)[C@@H](O)[C@H](O)[C@H]1O)c(O)c2[C@@H](CCc1ccc(O[C@@H]2O[C@H](CO)[C@@H](O)[C@H](O)[C@H]2O)cc1)c1ccc(O[C@@H]2O[C@H](CO)[C@@H](O)[C@H](O)[C@H]2O)cc1O[C@@H]1O[C@H](CO)[C@@H](O)[C@H](O)[C@H]1O`, the inhibition result at Transcription factor p65 [1] and at Transcription factor p65 [2] was “Active” throughout. The IC50 at Transcription factor p65 [3] worked out at 19.3 µM.

Broadly, the IC50 is the concentration needed to halve the response being measured.
